Reference: US20140088114A1, “FUSED BICYCLIC KINASE INHIBITORS” (OSI Pharmaceuticals ,LLC, priority 2011, published 2014)

Legend:
Assay type in all cases: cell-based
c-MET = biological target: T1, c-MET (Homo sapiens, UniProt P08581); assay: MET cell mechanistic assay (MKN45), phosphorylated MET ELISA; conditions: MKN45 cell line, 4 hours incubation, inhibition of phosphorylated MET, at least duplicate experiments; read-out: MET mech IC50
T1 construct: endogenous in cells; host or cells: MKN45
Protocol: The cellular activity of the compounds of the present invention against c-MET may be determined by the following procedure. MKN45 cells were plated in Falcon 3072 96-well plates in growth media (RPMI, 10% FBS, 1% L-glutamine) at a density of 5000 cells/well and incubated at 37° C., 5% CO2 overnight. The following day, one-tenth volume of a 10× concentration of compounds was added to the wells in a 6-point dilution series. The dilutions series was composed of an initial 1:5 dilution in DMSO, followed by a 1:10 dilution in growth media, for a final DMSO concentration on cells of 0.5%. Control wells were treated with 0.5% DMSO. The typical range of dilution was 10 μM to 3 nM. Once compound was added to the cells, plates were incubated for 4 hours at 37° C., 5% CO2. Plates were then washed in PBS, and lysed in triton-based lysis buffer. Lysates were transferred to a precoated capture plate made by Biosource (Cat #KHO0281). The phosphorylated MET levels were measured by incubating with a rabbit polyclonal antibody against phosphorylated MET ([pYpYpY1230/1234/1235]) followed by an anti-rabbit antibody conjugated to HRP. Signal was measured on a Wallac Victor plate reader at 450 nm. The DMSO signal of the control wells was defined as 100% and the percent of inhibition of phosphorylated MET was expressed as percent of control. IC50 values were determined from the percent of control data using a standard four-parameter model.
(§1) The IC50 values of exemplary compounds of the present invention determined in a MET cell mechanistic assay using the MKN45 cell line according to the procedures described herein in at least duplicate experiments are abbreviated as follows and are shown in Table 1: A, IC50≦0.03 μM; B, 0.03 μM<IC50≦0.1 μM; C, 0.1 μM<IC50≦1 μM; D, 1 μM<IC50≦3 μM; ND, not determined. The Example # of Table 1 corresponds to the compound Example number as illustrated in the Examples section. […]

Aurora B = biological target: T2, Aurora B (Homo sapiens, UniProt Q96GD4); assay: Aurora B cell mechanistic assay (HT-29), phospho-Histone H3 (Ser10) ELISA; conditions: HT-29 cell line, inhibition of phospho-Histone H3 (Ser10), at least duplicate experiments (italicized if single); read-out: Aurora B mech IC50
T2 construct: HT-29 cells grown in complete growth media; endogenous in cells; host or cells: HT-29
Protocol: The cellular activity of the compounds of the present invention against Aurora B may be determined by the following procedure. HT-29 cells grown in complete growth media (McCoy's 5A, 10% FCS, 1% L-glutamine) were plated into wells of a 96 well tissue culture plate (Falcon 3072) at a cell density of 4×10^4 cells/0.09 ml media/well. Cells were subsequently incubated overnight in a 5% CO2 humidified 37° C. incubator. The following day 10 μl of a 10× stock of test compound serially diluted in media was added to the cells and incubated for 1 h at 37° C. at which time Calyculin A (Cell Signaling #9902) was added at a concentration of 100 nM and cells incubated for an additional 30 minutes in a 5% CO2 humidified 37° C. incubator. Media was then aspirated and cells lysed using a Triton based lysis buffer. Lysates were transferred to a pre-coated anti-Histone H3 antibody coated plate supplied by Cell Signaling in their PathScan phospho-Histone H3 (Ser10) ELISA kit (#7155). After an overnight incubation with lysate the ELISA was continued following the manufacturer's instructions. Signal was measured on a Wallac Victor plate reader at 450 nm. DMSO control treated cells served as 100% signal and an Aurora B kinase inhibitor served as 100% inhibition. The percent inhibition of phospho-Histone H3 (Ser10) was expressed as % control. IC50 values were calculated from the percent control data using a standard four-parameter model.
The IC50 values of exemplary compounds of the present invention determined in a Aurora B cell mechanistic assay using the HT-29 cell line according to the procedures described herein in at least duplicate experiments are abbreviated as follows and are shown in Table 4: A, IC50≦0.03 μM; B, 0.03 μM<IC50≦0.1 μM; C, 0.1 μM<IC50≦1 μM; D, 1 μM<IC50≦3 μM; ND, not determined. If only data from single experiments are available, the abbreviations are italicized. The Example # of Table 4 corresponds to the compound example number as illustrated in the Examples section.

MKN45 cells = assay: MKN45 cell proliferation assay (CellTiter-Glo); conditions: Homo sapiens, MKN-45, 72 h; MKN45 cell line, 3 days incubation, at least duplicate experiments; read-out: Prolif. IC50
Protocol: The effect of inhibitors on the proliferation of MKN45 cells was determined using the following protocol. MKN45 cells were plated in Corning 3917 96-well white tissue culture treated plates in growth medium (RPMI, 10% FCS) at a density of 5000 cells/well in a total volume of 135 μL and incubated at 37° C., 5% CO2, 95% humidity overnight. The following day, one-tenth volume of a 10× concentration of compounds was added to the wells in an 8-point dilution series. The dilution series was composed of an initial 1:5 dilution of a 10 mM stock of compound in DMSO, followed by serial 1:4 dilutions in DMSO, then a 1:20 dilution in growth medium prior to the 1:10 dilution into the cell plate. Final DMSO concentration on the cells was 0.1%, there were control wells treated with both 0.1% DMSO and no DMSO. The typical dilution range is 10 μM to 0.6 nM. Once the compound was added to the cells, plates were incubated for 3 days at 37° C., 5% CO2 at 95% humidity. On the third day, after allowing all cells and reagents to come to room temperature, 25 μL of CellTiter-Glo reagent (Promega #G7573) was added to the wells. Plates were shaken on a platform for 10 minutes prior to reading luminescence for 0.1 seconds. The signal of the control wells was taken as 100% growth and growth inhibition was expressed as percent of control. IC50 values were determined from the percent of control data using a standard four-parameter model.
as §1, with “a” for “a MET”, “cell proliferation” for “cell mechanistic”, “Table 2:” for “Table 1:”, “Table 2” for “Table 1”, “compound example” for “compound Example”

T2 sequence (Q96GD4 whole entry): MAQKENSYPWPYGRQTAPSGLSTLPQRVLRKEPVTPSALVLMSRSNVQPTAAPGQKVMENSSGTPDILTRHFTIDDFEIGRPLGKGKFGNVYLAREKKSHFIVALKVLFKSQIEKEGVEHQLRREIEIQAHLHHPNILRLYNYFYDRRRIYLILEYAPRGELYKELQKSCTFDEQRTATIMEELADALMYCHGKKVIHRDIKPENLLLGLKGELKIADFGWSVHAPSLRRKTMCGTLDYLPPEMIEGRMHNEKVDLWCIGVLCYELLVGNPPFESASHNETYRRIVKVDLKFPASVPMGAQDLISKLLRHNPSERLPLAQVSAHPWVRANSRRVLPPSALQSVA
T1 sequence (P08581 25-1390): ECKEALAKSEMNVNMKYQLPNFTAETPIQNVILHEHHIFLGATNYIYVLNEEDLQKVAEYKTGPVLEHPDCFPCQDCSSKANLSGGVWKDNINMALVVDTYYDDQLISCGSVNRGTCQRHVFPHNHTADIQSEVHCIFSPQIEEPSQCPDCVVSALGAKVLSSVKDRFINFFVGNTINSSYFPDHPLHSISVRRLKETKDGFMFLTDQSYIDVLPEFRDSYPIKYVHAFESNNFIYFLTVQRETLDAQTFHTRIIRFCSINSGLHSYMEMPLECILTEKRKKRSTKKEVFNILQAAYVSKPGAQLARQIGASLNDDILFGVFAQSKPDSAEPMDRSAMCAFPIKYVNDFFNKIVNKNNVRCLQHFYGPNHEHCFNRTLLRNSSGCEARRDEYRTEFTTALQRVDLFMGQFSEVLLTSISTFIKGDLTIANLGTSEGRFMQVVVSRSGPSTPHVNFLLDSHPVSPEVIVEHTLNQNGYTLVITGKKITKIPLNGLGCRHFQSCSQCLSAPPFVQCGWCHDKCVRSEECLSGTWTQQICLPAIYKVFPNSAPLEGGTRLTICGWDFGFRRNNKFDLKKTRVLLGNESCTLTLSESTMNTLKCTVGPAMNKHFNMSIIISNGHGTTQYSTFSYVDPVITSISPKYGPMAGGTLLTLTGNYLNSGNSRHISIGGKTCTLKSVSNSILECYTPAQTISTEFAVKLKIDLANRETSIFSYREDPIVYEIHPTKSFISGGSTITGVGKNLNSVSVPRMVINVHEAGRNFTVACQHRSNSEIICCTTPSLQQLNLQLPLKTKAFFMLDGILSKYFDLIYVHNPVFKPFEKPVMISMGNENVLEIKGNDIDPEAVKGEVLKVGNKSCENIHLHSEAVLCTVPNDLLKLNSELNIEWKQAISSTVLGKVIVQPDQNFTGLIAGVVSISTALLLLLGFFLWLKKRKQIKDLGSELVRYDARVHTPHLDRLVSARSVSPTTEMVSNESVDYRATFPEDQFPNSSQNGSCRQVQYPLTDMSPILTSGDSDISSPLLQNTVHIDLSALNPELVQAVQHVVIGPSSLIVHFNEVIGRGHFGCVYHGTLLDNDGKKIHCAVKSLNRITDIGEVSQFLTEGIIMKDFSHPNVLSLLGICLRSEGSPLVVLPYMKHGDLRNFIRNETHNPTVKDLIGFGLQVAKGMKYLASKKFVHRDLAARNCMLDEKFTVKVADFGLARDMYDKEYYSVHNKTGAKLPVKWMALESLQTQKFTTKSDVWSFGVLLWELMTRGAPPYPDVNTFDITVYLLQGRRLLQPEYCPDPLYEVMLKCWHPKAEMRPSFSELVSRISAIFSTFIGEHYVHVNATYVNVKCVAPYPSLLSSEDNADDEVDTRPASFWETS

Row | IC50 (c-MET) | IC50 (Aurora B) | IC50 (MKN45 cells) | Compound
1 | ≤ 30 nM | ≤ 30 nM | 100 to 1000 nM | COc1ccc(F)c(Cl)c1[C@@H](CF)c1c[nH]c2ncc(-c3cnn([C@H]4CC[C@H](O)CC4)c3)cc12 [Example 3, trans-4-(4-{3-[(1S)-1-(2-chloro-3-fluoro-6-methoxyphenyl)-2-fluoroethyl]-1H-pyrrolo[2,3-b]pyridin-5-yl}-1H-pyrazol-1-yl)cyclohexanol]
2 |  | 100 to 1000 nM | 100 to 1000 nM | Cn1cc(-c2cnc3[nH]cc(C(CF)c4c(Cl)ccc(F)c4Cl)c3c2)cn1 (stereo not shown) [Example 1, 3-[1-(2,6-Dichloro-3-fluorophenyl)-2-fluoroethyl]-5-(1-methyl-1H-pyrazol-4-yl)-1H-pyrrolo[2,3-b]pyridine]
3 | ≤ 30 nM | ≤ 30 nM |  | O[C@H]1CC[C@H](n2cc(-c3cnc4[nH]cc([C@H](CF)c5c(OC(F)F)ccc(F)c5Cl)c4c3)cn2)CC1 [Example 5, trans-4-[4-(3-{(1S)-1-[2-Chloro-6-(difluoromethoxy)-3-fluorophenyl]-2-fluoroethyl}-1H-pyrrolo[2,3-b]pyridin-5-yl)-1H-pyrazol-1-yl]cyclohexanol]
4 | 100 to 1000 nM | 100 to 1000 nM | ≤ 30 nM | O[C@H]1CC[C@H](n2cc(-c3cnc4[nH]cc([C@@H](CF)c5c(OC(F)F)ccc(F)c5Cl)c4c3)cn2)CC1 [Example 4, trans-4-[4-(3-{(1R)-1-[2-Chloro-6-(difluoromethoxy)-3-fluorophenyl]-2-fluoroethyl}-1H-pyrrolo[2,3-b]pyridin-5-yl)-1H-pyrazol-1-yl]cyclohexanol]
